# Columns and labels:
# CT26 tumor cells = experiment: CT26 syngeneic mouse tumor model (survival and tumor volume); assay type: in vivo; conditions: for Median Survival: CT26 tumor bearing BALB/cJ mice, PF-06952229 30 mg/kg PO BID 7 days on/7 off, palbociclib 10 mg/kg PO BID, PF-06873600 50 mg/kg PO BID, survival endpoint tumor volume 2000 mm^3
# Protocol: CT26 cells were obtained from American Type Culture Collection (ATCC) and cultured in Roswell Park Memorial Institute (RPM11640) supplemented with 10% fetal bovine serum (FBS). All cells were maintained in a humidified incubator at 37° C. with 5% carbon dioxide (CO2). Female Balb/cJ mice were obtained from Jackson Laboratories at 8 weeks of age. To generate the syngeneic model, 0.25 million CT26 tumor cells were subcutaneously implanted into the right flank of female BALB/cJ mice. Tumor bearing mice were randomized into six treatment groups based on average tumor sizes of approximately 50 mm^3 per group, on Day 10 post tumor cell implantation. Study groups included vehicle, 30 mg/kg PF-06952229, 10 mg/kg PD-0332991 (Palbociclib), PF-06873600 (CDK 2/4/6 inhibitor), combination of PF-06952229 +PD-0332991 and combination of PF-06952229+PF-06873600. PF-06952229 was administered orally twice daily (BID) with 7 days on and 7 days off schedule. PD-0332991 or PF-06873600 was administered orally BID continuously, until the end of the study.
# Tumor volumes were measured three times a week. Tumor volume was calculated based on two dimensional caliper measurement with cubic millimeter volume calculated using the formula (length×width2)×0.5. Mice were sacrificed when the tumor volumes reached 2000 mm^3, which was the survival endpoint for this study. Survival curves were plotted using GraphPad Prism 7 software. Statistical analyses were performed using the Log-rank (Mantel-Cox) test.
# pS807/811 Rb = experiment: Phospho-Rb Ser807/811 Bioassay of MCF7 xenograft tumor lysates; conditions: tumor samples Day 21 post-treatment initiation; result in words
# pSMAD2 = pSMAD2 Bioassay of MCF7 xenograft tumor samples; assay type: in vivo, human; conditions: tumor samples Day 21 post-treatment initiation; result in words
# Protocol: pSMAD2 Bioassay: Tumor samples were collected and snap-frozen in 2.0 mL cryogenic tubes (Nalgene™) prior to analysis. Thawed tumor samples were homogenized in cell extraction buffer (Invitrogen, Carlsbad, Calif.) with addition of protease and phosphatase inhibitors. Tumor lysates were centrifuged to pellet insoluble debris, and the clarified supernatants were transferred to new tubes. pSmad2 was measured using a 6-Plex TGFbeta Signaling Magnetic Bead Kit (Millipore, Burlington, Mass.). All assays were carried out at room temperature. After blocking a 96-well black round-bottom plate with assay buffer for 10 minutes, 25 μL of the working microsphere bead mixture (beads were diluted to 1× with assay buffer from kit) and 25 μL of 1:10 diluted tumor lysate (1:10 dilution with assay buffer) were added to the plate. […] After washing, the beads were resuspended in 150 μL/well of sheath fluid (Bio-Rad catalog # 171-000055) and analyzed using a Bio-Plex 200 analyzer (Bio-Rad, Hercules Calif.). The mean fluorescence intensity (MFI) from each well was determined using Bio-Plex Manager Software, version 6.1 (Bio-Rad). […]
# Total Smad2 Bioassay: PathScan Total Smad2 Sandwich ELISA Kit (Cell signaling, Catolog #7244C) was used to determine the total Smad2 protein according to manufacturer's instructions. […] The absorbance of the samples at 450 nm was measured on a Spectramax plate reader (Molecular Devices).
# [1] = test system: MCF7 human ER+ breast cancer cells; experiment: MCF7 human ER+ xenograft mouse tumor model (tumor volume); assay type: in vivo; conditions: NSG mice; Day 21 post-treatment initiation; PF-06952229 30 mg/kg PO BID 7 on/7 off, PD-0332991 10 mg/kg PO BID, PF-05279929 10 mg/kg SC twice per week; result in words
# Protocol: MCF7 human ER^+ breast cancer cells were obtained from American Type Culture
# Collection (ATCC) and cultured in Roswell Park Memorial Institute (RPMI1640) supplemented with 10% fetal bovine serum (FBS). All cells were maintained in a humidified incubator at 37° C. with 5% carbon dioxide (CO2). Female NSG mice were obtained from Jackson Laboratories at 7 weeks of age. To generate the xenograft model, 17β-ESTRADIOL pellets (0.36 mg, 90-day release) were subcutaneously implanted into the left flank of female NSG mice, 7 days before the tumor cell implantation. Then 5 million MCF7 cancer cells were subcutaneously implanted into the right axial region of female NSG mice. Tumor-bearing mice were randomized into treatment groups based on average tumor sizes of approximately 180 mm^3, on Day 27 post-tumor cell implantation, and treatments were initiated. […]
# Tumor volumes were measured two times a week. Tumor volume was calculated based on two-dimensional caliper measurement with cubic millimeter volume calculated using the formula (length×width^2)×0.5. Body weights were measured two times a week. […] Comparisons of treated groups to control group or to other treated groups are made using a t statistic under the ANCOVA model with fold change and the associated 95% confidence interval calculated.
Compound,Median Survival (CT26 tumor cells) [days],"Tumor growth inhibition (CT26 tumor cells; Day 17 post-treatment initiation, result in words)","Survival (CT26 tumor cells; Day 40 post-treatment initiation, result in words)",pS807/811 Rb levels (pS807/811 Rb),Inhibition of pSMAD2 (pSMAD2),Tumor growth inhibition [1]
"CC(C)c1cnc(-c2cc(Cl)ccc2F)cc1Nc1ccncc1C(=O)NC(CO)CO [PF-06952229, 4-(2-(5-chloro-2-fluorophenyl)-5-isopropylpyridin-4-ylamino)-N-(1,3-dihydroxypropan-2-yl)nicotinamide]",24,did not significantly inhibit tumor growth,did not significantly increase survival,slight increase,significant inhibition of pSMAD2,did not significantly inhibit tumor growth
C[C@@]1(O)CCC[C@H]1n1c(=O)c(C(F)F)cc2cnc(NC3CCN(S(C)(=O)=O)CC3)nc21 [PF-06873600],26.5,–,–,–,–,–
"CC(=O)c1c(C)c2cnc(Nc3ccc(N4CCNCC4)cn3)nc2n(C2CCCC2)c1=O [Palbociclib, 6-acetyl-8-cyclopentyl-5-methyl-2-(5-piperazin-1-yl-pyridin-2-ylamino)-8H-pyrido[2,3-d]pyrimidin-7-one, reference compound]",26.5,–,–,slight decrease,–,–
